Columns and labels:
Assay type in all cases: functional
Maladera castanea [1] = experiment: Insecticidal activity against Maladera castanea assessed as mortality after 30 days; set-up: concentration or dose not given beside the values
Maladera castanea [2] = experiment: Insecticidal activity against Maladera castanea assessed as mortality after 10 days; set-up: concentration or dose not given beside the values
Anomala orientalis [3] = experiment: Insecticidal activity against Anomala orientalis assessed as mortality after 30 days; set-up: concentration or dose not given beside the values
Anomala orientalis [4] = experiment: Insecticidal activity against Anomala orientalis assessed as mortality after 20 days; set-up: concentration or dose not given beside the values
Anomala orientalis [5] = experiment: Insecticidal activity against Anomala orientalis assessed as mortality after 10 days; set-up: concentration or dose not given beside the values
Amphimallon majale [6] = experiment: Insecticidal activity against Amphimallon majalis (European chafer) assessed as mortality after 30 days
Amphimallon majale [7] = experiment: Insecticidal activity against Amphimallon majalis (European chafer) assessed as mortality after 20 days
Amphimallon majale [8] = experiment: Insecticidal activity against Amphimallon majalis (European chafer) assessed as mortality after 10 days
Popillia japonica [9] = experiment: Insecticidal activity against Popillia japonica assessed as mortality after 30 days
Popillia japonica [10] = experiment: Insecticidal activity against Popillia japonica assessed as mortality after 20 days
Popillia japonica [11] = experiment: Insecticidal activity against Popillia japonica assessed as mortality after 10 days
Maladera castanea [12] = experiment: Insecticidal activity against Maladera castanea assessed as mortality after 20 days; set-up: concentration or dose not given beside the values

Row | Compound | Activity (Maladera castanea [1]) | Activity (Maladera castanea [2]) | Activity (Anomala orientalis [3]) | Activity (Anomala orientalis [4]) | Activity (Anomala orientalis [5]) | Activity (Amphimallon majale [6]) | Activity (Amphimallon majale [7]) | Activity (Amphimallon majale [8]) | Activity (Popillia japonica [9]) | Activity (Popillia japonica [10]) | Activity (Popillia japonica [11]) | Activity (Maladera castanea [12])
1 | CC[C@H]1CCC[C@H](O[C@H]2CC[C@H](N(C)C)[C@@H](C)O2)[C@@H](C)C(=O)C2=C[C@@H]3[C@@H](C=C(C)[C@@H]4C[C@@H](O[C@@H]5O[C@@H](C)[C@H](OC)[C@@H](OC)[C@H]5OC)C[C@@H]34)[C@@H]2CC(=O)O1.CC[C@H]1CCC[C@H](O[C@H]2CC[C@H](N(C)C)[C@@H](C)O2)[C@@H](C)C(=O)C2=C[C@@H]3[C@@H](C=C[C@@H]4C[C@@H](O[C@@H]5O[C@@H](C)[C@H](OC)[C@@H](OC)[C@H]5OC)C[C@@H]34)[C@@H]2CC(=O)O1 | 79.6% | 6.6% | 59% | 31.4% | 3.2% | 26.5% | 11.8% | 17.1% | 58.9% | 33.5% | 7.3% | 20.6%
2 | C/C=C(\C)C(=O)O[C@H]1C[C@@H](OC(C)=O)[C@@]2(C(=O)OC)CO[C@H]3[C@@H](O)[C@@](C)([C@]45O[C@@]4(C)[C@@H]4C[C@H]5O[C@@H]5OC=C[C@@]54O)[C@H]4[C@]1(CO[C@]4(O)C(=O)OC)[C@@H]32 [AZADIRACHTIN A] | – | – | – | – | – | 15.8% | 1.1% | 4% | 87.2% | 64.1% | 74.3% | –
3 | Cc1c(COC(=O)[C@@H]2[C@H](/C=C(\Cl)C(F)(F)F)C2(C)C)cccc1-c1ccccc1 [BIFENTHRIN] | – | – | – | – | – | 0% | 0% | 0% | 86.7% | 59.3% | 36.9% | –
4 | CCOP(=S)(OCC)Oc1nc(Cl)c(Cl)cc1Cl [CHLORPYRIFOS] | 92.4% | 65.5% | 98.6% | 94.8% | 87.9% | 100% | 89% | 43% | 100% | 84.4% | 62.7% | 89.6%
5 | CN/C(=N\[N+](=O)[O-])NCc1cnc(Cl)s1 [CLOTHIANIDINE] | 100% | 39.8% | 98.6% | 89.3% | 56% | 44.3% | 22.6% | 19.8% | 32.8% | 22.9% | 4% | 75.7%
6 | CN/C(=N/CC1CCOC1)N[N+](=O)[O-] (stereo not given) [DINOTEFURAN] | – | – | – | – | – | 8.9% | 2.2% | 0% | 86.2% | 69.3% | 54.4% | –
7 | O=[N+]([O-])/N=C1\NCCN1Cc1ccc(Cl)nc1 [IMIDACLOPRID] | 38.8% | 9.2% | 68.3% | 30.1% | 9.7% | 34.2% | 18.3% | 13% | 41.7% | 22.6% | 9.1% | 12.2%
8 | CN1COCN(Cc2cnc(Cl)s2)/C1=N\[N+](=O)[O-] [THIAMETHOXAM] | 72.8% | 28.2% | 78.7% | 57.5% | 27% | 35.1% | 16.4% | 13.1% | 91% | 74.9% | 48.1% | 39.1%
9 | COP(=O)(OC)C(O)C(Cl)(Cl)Cl (stereo not given) [TRICHLORFON] | 100% | 70.3% | 96% | 95.1% | 95.6% | 7.4% | 2.6% | 6% | 94.8% | 92.6% | 71.3% | 97.7%
